Experimental data: patent US12115222B2, “Compositions and methods for improving the solubility of erectile dysfunction therapeutics” (Villya LLC, priority 2023, dated 2024)
Counter-ions that a name gives are not always drawn. Like-named read-outs stand apart in the source and are kept apart here.

Key:
[1] = cited from earlier work
[2] = Source text: After solubilizing the sugar and the compound in ethanol or aqueous ethanol, the ethanol is evaporated for example under a high rotary vacuum. The powder resulting from the evaporation step is then resolubilized (dissolved) in water. Another solvent can be methanol at 80% methanol, 95% (ACS grade) or greater (to 100% methanol) as well as combinations of methanol and ethanol or methanol and water. After solubilizing the sugar and the compound in ethanol or aqueous ethanol, the ethanol is evaporated for example under a high rotary vacuum. The powder resulting from the evaporation step is then resolubilized (dissolved) in water.
Generally, ingredients are deposited into a sealed container with ethanol and vortex-mixed to form a solution. The solution is subjected to centrifugation. The ethanol is evaporated off and the dried mixture was dissolved in water. This mixture is centrifuged again and the supernatant is filtered through a membrane. […] In one embodiment, the admixing process involves dissolving the PSD and sugar in the ethanol while stirring and adjusting the pH as necessary to obtain complete dissolution and a clear reaction mixture. The reaction mixture can then be dried to remove the ethanol. No further water washing or filtering is needed.
In this example, an oven-dried single-neck RB flask equipped with a magnetic stir bar was used. […] The reaction mixture was vigorously stirred at room temperature for 30 min at 20° C. […] The white solid was dried using vacuum drying performed at room temperature and a high vacuum pump for about one hour to remove the ethanol (EtOH) completely using an Edvards Model #RV8 […], a Heidolph type Basis Hei-VAP Value, No. 560-00000-0101. The high vacuum pump was connected to a cooling trap and the trap was connected to the RB flask. Vacuum strength was about 1 mm Hg.
The white foamy solid was dried over a high vacuum at room temperature for an additional hour to remove the water completely, by ascertaining changes in weight loss. Drying continued until further weight loss was not observed.
Step 1: In an oven-dried single neck RB flask equipped with magnetic stir and septa (flask cap), 5 mg sildenafil (0.01054 mmol) and 16.95 mg stevioside (1:2 molar ratio) were weighed into the RB flask and dissolved in 85% ethanol (˜2.0 mL, denatured 85% ethanol) at ambient temperature. The reaction mixture was vigorously stirred at room temperature for 30 min. […] The white solid was dried over a high vacuum for an hour to remove the ethanol completely (no further reduction in weight was observed).
Step 2: The obtained white solid was then dissolved in 2.0 mL water at room temperature in an RB flask with a magnetic stir bar. The reaction mixture was stirred at ambient temperature for 30 min. […] The white foamy solid was dried over a high vacuum at room temperature for an additional hour to remove the water completely. The weight of the flask was checked while drying until no further weight loss was observed.

[3] = cited from earlier work; remark: listed apart in the source
[4] = Non-caloric sugar solubility in water and 95% ethanol
Description: In this experiment, the following sugars were compared for solubility: rubusoside, dulcoside A, rebaudioside B, dulcoside B, and rebaudioside D. Approximately 5.0 mg of each sugar was attempted to be dissolved in 0.6 mL water and vortexed for 2 minutes at room temperature.
In another experiment, 50 mg stevia was dissolved in either 2.0 mL water or 2.0 mL 95% ethanol.

[5] = approximately 5.0 mg in 0.6 mL water, vortexed 2 minutes, room temperature

Nc1nc2c(ncn2COCCO)c(=O)[nH]1 [Acyclovir]
water solubility ([1]; drug alone): less than 1 mg/mL

CCCCC[C@H](O)/C=C/[C@H]1[C@H](O)CC(=O)[C@@H]1CCCCCCC(=O)O [Alprostadil, (1R,2R,3R)-3-Hydroxy-2-[(E)-(3S)-3-hydroxy-1-octenyl]-5-oxocyclopentane heptanoic acid]
solubility of the complex in water by NMR [2]: 100%
solubility in DMSO [1]: soluble
solubility in distilled water ([1]; distilled water): 8000 μg per 100 mL
solubility in water ([1]; drug alone): insoluble
water solubility ([1]; drug alone): less than 1 mg/mL
solubility in ethanol, ether and ethyl acetate ([1]; printed over two lines: nearly / insoluble): insoluble in ethanol, ether

COc1ccc(CN=c2[nH]c(N3CCC[C@H]3CO)ncc2C(=O)NCc2ncccn2)cc1Cl [Avanafil, 4-[(3-chloro-4-methoxyphenyl)methylamino]-2-[(2S)-2-(hydroxymethyl)pyrrolidin-1-yl]-N-(pyrimidin-2-ylmethyl)pyrimidine-5-carboxamide]
solubility in water by NMR [2]: 100%
solubility in DMSO ([1]; at 25° C.): Soluble in DMSO (97 mg/ml
solubility in DMSO [1]: soluble

O=C(CO)[C@@H](O)[C@H](O)[C@H](O)CO [D-fructose]
Sugar Solubility in 95% EtOH [3]: Insoluble
solubility of the sugar in 95% ethanol (observation) ([4]; Example 22, 200 mg, 20° C.): not soluble
solubility of the sugar in water (observation) ([4]; Example 22, 200 mg, 20° C.): soluble

CC(=O)O[C@H]1C(=O)[C@@]2(C)[C@H]([C@H](OC(=O)c3ccccc3)[C@]3(O)C[C@H](OC(=O)[C@H](O)[C@@H](NC(=O)c4ccccc4)c4ccccc4)C(C)=C1C3(C)C)[C@]1(OC(C)=O)CO[C@@H]1C[C@@H]2O [Paclitaxel]
Solubility of Paclitaxel In Ethanol, With Rubusoside [2]: Soluble
Solubility of Paclitaxel In Water after first being dissolved in EtOH, With Rubusoside [2]: Insoluble
Solubility of Paclitaxel In Water, With Rubusoside [2]: Insoluble

CC1(C)S[C@@H]2[C@H](NC(=O)COc3ccccc3)C(=O)N2[C@H]1C(=O)O [Penicillin V HCl, phenoxymethylpenicillinic acid]
Solubility In 95% Ethanol, With Rubusoside (table of Example 25) [2]: Soluble
Solubility In Water after first being dissolved in EtOH, With Rubusoside (table of Example 25) [2]: Soluble
Solubility In Water, With Rubusoside (table of Example 25) [2]: Soluble
Solubility of Penicillin V HCl In Ethanol, With Rubusoside [2]: Soluble
Solubility of Penicillin V HCl In Water after first being dissolved in EtOH, With Rubusoside [2]: Soluble
Solubility of Penicillin V HCl In Water, With Rubusoside [2]: Soluble
Solubility of Penicillin V HCl In Ethanol, Without Rubusoside ([1]; Example 24): Soluble
Solubility of Penicillin V HCl In Water, Without Rubusoside ([1]; Example 24): 0.636 mg/mL or at
Solubility of Penicillin V HCl In Water, Without Rubusoside ([1]; Example 24, pH 1.8 acidified with HCl): HCl at 24 mg/100 mL
Solubility In Water, Without Rubusoside (table of Example 25) ([1]; Example 25 (acyclovir and rubusoside), at 55° C.): 1 mg/mL at 55 °C
Solubility In Water, Without Rubusoside (table of Example 25) ([1]; Example 25 (acyclovir and rubusoside), at pH 1.8): 24 mg/100 mL at
Solubility In 95% Ethanol, Without Rubusoside (table of Example 25) ([1]; Example 25 (acyclovir and rubusoside)): Soluble

C=C1C[C@@]23CC[C@H]4[C@@](C)(CCC[C@@]4(C)C(=O)O[C@@H]4O[C@H](CO)[C@@H](O)[C@H](O)[C@H]4O)[C@@H]2CC[C@]1(O[C@@H]1O[C@H](CO)[C@@H](O)[C@H](O)[C@H]1O)C3 [Rubusoside]
Sugar Solubility in 95% EtOH [3]: 10 mg/mL
Sugar Solubility in Water [3]: Soluble
solubility of the sugar in water (observation) [4, 5]: No undissolved

C=C1C[C@@]23CC[C@H]4[C@@](C)(CCC[C@@]4(C)C(=O)O[C@@H]4O[C@H](CO)[C@@H](O)[C@H](O)[C@H]4O)[C@@H]2CC[C@]1(O[C@@H]1O[C@H](CO)[C@@H](O)[C@H](O)[C@H]1O[C@@H]1O[C@H](CO)[C@@H](O)[C@H](O)[C@H]1O)C3 [Stevioside]
Sugar Solubility in 95% EtOH [3]: 30 mg/mL
Sugar Solubility in Water [3]: 4 g/L

CN1CC(=O)N2[C@H](c3ccc4c(c3)OCO4)c3[nH]c4ccccc4c3C[C@@H]2C1=O [Tadalafil, (2R,8R)-2-(1,3-benzodioxol-5-yl)-6-methyl-3,6,17-triazatetracyclo[8.7.0.0^3, 8.0^11, 16]heptadeca-1(10),11,13,15-tetraene-4,7-dione]
improvement in water solubility [2]: ~2.3%
appearance of the dried gel in water ([2]; Example 31, Tadalafil:Tween 80 1:5 molar, after 3 minutes): white and turbid solution
appearance of the dried mixture in 3 mL water ([2]; Example 31, tadalafil:P188:stevioside 1:10:5 molar): white turbid solution
appearance of the dried mixture in water ([2]; Example 31, tadalafil:P-188 1:10): turbid solution
appearance of the dried mixture in 2.0 mL water ([2]; Example 31, tadalafil:Tween 20 1:5 molar): white turbid solution with solids still visible
appearance of the dried mixture in 3.0 mL water ([2]; Example 31, tadalafil:glycerol:stevioside 1:20:5): white turbid solution
low-intensity drug peaks by NMR ([2]; Example 31, tadalafil:glycerol:stevioside 1:20:5, 10 mg citric acid monohydrate, pH about 3.0): 2-3%
appearance of the dried mixture in 3.0 mL water ([2]; Example 31, tadalafil:glycerol:stevioside 1:30:5, citric acid, pH about 3.0): white turbid
appearance of the dried mixture in water ([2]; Example 31, tadalafil:stevioside 1:3 molar, citric acid in step 1): white turbid solution
appearance of the dried powder in 2 mL water ([2]; Example 31, tadalafil:stevioside 1:10 molar, buffer pH 9.4 added in water): white turbid solution
appearance of the dried mixture in water ([2]; Example 31, tadalafil:stevioside 1:10 molar, carbonate buffer pH 9.4 in step 1): white and turbid
solubility of the complex in water ([2]; pH 2.5): not 100% soluble
solubility in water ([1]; at 25° C.): 220 mg/L at 25 °C in water
solubility in chloroform [1]: soluble

CCCOc1ccc(S(=O)(=O)NCCC2CCCN2C)cc1-c1nc2c(CCC)nn(C)c2c(=O)[nH]1 (centres unmarked) [Udenafil]
solubility in DMSO [1]: soluble
water solubility ([1]; drug alone): about 0.0798 mg/mL

CCCc1nc(C)c2c(=O)[nH]c(-c3cc(S(=O)(=O)N4CCN(CC)CC4)ccc3OCC)nn12 [Vardenafil HCl]
solubility of the complex in water by NMR [2]: 100%
solubility in DMSO ([1]; at 28° C., solids remain present at 22° C.): soluble
solubility in chloroform [1]: insoluble

CCCc1nc(C)c2c(=O)[nH]c(-c3cc(S(=O)(=O)N4CCN(CC)CC4)ccc3OCC)nn12 [Vardenafil, 2-[2-ethoxy-5-(4-ethylpiperazin-1-yl)sulfonylphenyl]-5-methyl-7-propyl-3H-imidazo[5,1-f][1,2,4]triazin-4-one]
solubility in water ([1]; at 25° C., Estimated): 3.5 mg/L at 25° C./

C=C1C[C@@]23CC[C@H]4[C@@](C)(CCC[C@@]4(C)C(=O)O[C@@H]4O[C@H](CO)[C@@H](O)[C@H](O)[C@H]4O)[C@@H]2CC[C@]1(O[C@@H]1O[C@H](CO)[C@@H](O)[C@H](O[C@@H]2O[C@H](CO)[C@@H](O)[C@H](O)[C@H]2O)[C@H]1O[C@@H]1O[C@@H](C)[C@H](O)[C@@H](O)[C@H]1O)C3 [dulcoside B]
Sugar Solubility in 95% EtOH [3]: Slightly soluble
Sugar Solubility in Water [3]: Partly soluble
solubility of the sugar in water (observation) [4, 5]: partially soluble

CCCCCCCCCCCCO[C@@H]1O[C@H](CO)[C@@H](O[C@H]2O[C@H](CO)[C@@H](O)[C@H](O)[C@H]2O)[C@H](O)[C@H]1O [n-Dodecyl-β-D-maltoside]
Sugar Solubility in 95% EtOH [3]: Soluble
Sugar Solubility in Water [3]: 50 g/L
solubility of the sugar in 95% ethanol (observation) ([4]; 50 mg in 2.0 mL 95% ethanol): soluble
solubility of the sugar in water (observation) ([4]; 50 mg in 2.0 mL water): soluble

C[C@]12C=CC(=O)C=C1CC[C@@H]1[C@@H]2C(=O)C[C@@]2(C)[C@H]1CC[C@]2(O)C(=O)CO [prednisone]
appearance of the dried powder re-dissolved in 2 mL deionized water ([2]; Example 23, rubusoside 50 mg : prednisone 5 mg): white turbid mixture

OC[C@H]1O[C@@](CO)(O[C@H]2O[C@H](CO)[C@@H](O)[C@H](O)[C@H]2O)[C@@H](O)[C@@H]1O [sucrose]
Sugar Solubility in 95% EtOH [3]: Insoluble
Sugar Solubility in Water [3]: 204 g/100 g water

C[C@]12CC[C@H]3[C@@H](CCC4=CC(=O)CC[C@@]43C)[C@@H]1CC[C@@H]2OC(=O)CCC1CCCC1 [testosterone cypionate]
appearance of the dried mixture dissolved in water ([2]; rubusoside 23.4 mg : testosterone cypionate 5 mg (3:1 sugar-to-drug)): white turbid solution
appearance of the dried powder in 2 mL water ([2]; testosterone cypionate:stevioside 1:10 molar): white-turbid solution
